Test results reported in patent US11479770B2, “Use of p38 inhibitors to reduce expression of DUX4” (Fulcrum Therapeutics, Inc., priority 2017, dated 2022).

Columns and labels:
[1] = system: p38 system (phospho MK2 to total MK2 ratio); assay: Rat PD: phospho MK2 to total MK2 ratio in trapezius muscle; type: in vivo
Method: Approximately 50 mg of muscle tissue was placed on dry ice. Muscle samples were cut, as needed to obtain the 50 mg weight using a clean razor blade per specimen. 50 mg of muscle tissue was placed into a pre-labeled TT1 Covaris bag (Covaris, MA, USA) and kept on dry ice. The TT1 Covaris bag was submerged in liquid nitrogen and the sample was cryofractured in the Covaris cryoPREP (Covaris, MA, USA) on setting “5”. The TT1 bag was rotated 180° and steps 2-a were repeated. The sample was transferred into a pre-weighed/labeled tube and maintained on dry ice until all samples were prepared. Sample weights were recorded. RIPA lysis buffer was prepared (R0278-500ML, Sigma, MO, USA). For 10 ml, two Roche PhosSTOP phosphatase inhibitor tablets and one Roche EDTA-free protease inhibitor tablet were added. To the cryofractured material, 8 μl per mg of RIPA buffer were added to each tube and each tube was vortexed until the lysate was homogeneous. Lysates were maintained on ice until all samples were processed. The lysate was cleared by centrifugation at 13,000 g for 5 minutes at 4° C. The supernatant was transferred to a new tube and snap frozen in liquid nitrogen (setting aside […] for protein assay). To measure the protein content of each sample, a Bradford DC protein assay (5000112, Bio-Rad, CA, USA) was conducted. Samples were diluted 1:20 in PBS for protein assessment.
The homogenized trapezius muscle lysate was assessed using an internally developed Meso Scale Discovery (MSD) multiplexed phospho MK2/total MK2 immunoassay (Meso Scale Diagnostics, MD, USA). For each sample, 50 μL of muscle lysate, equal to 50 μg of protein, was loaded onto the MSD assay. Protein concentrations in muscle lysates were determined by a Bradford DC protein assay as described above. Samples were assessed in duplicate. Muscle samples were incubated on a pre-coated MSD plate overnight at 4° C. while on an orbital shaker (300 rpm) and assessed the following morning.

[2] = system: MBD3L2 mRNA (DUX4 downstream gene); assay: MBD3L2 mRNA expression (qPCR) in FSHD myotubes; type: cell-based, human; settings: 1 μM
Method: On day 0, the media was changed to differentiation media. Plates were removed from the incubator and the growth medium was aspirated, plates were washed once with PBS, 100 μL, for 96-wells and 1 mL for a 6-well plate, 100 μL, or 2 mL of differentiation medium was added per well, 96- or 6-well respectively. Antisense oligonucleotides or drug were added at the desired concentration, and the plates were put back in the incubator and incubated for 3-4 days.
Cells were removed from the incubator and media aspirated. Cells were quickly lysed following one of the following protocols: for lysis in 96-well plates, direct lysis and one-step RT-Preamp qPCR was performed according to the protocol described below. For each 96-well, a mix containing: 19.5 μL Roche Realtime Ready lysis buffer, 0.25 μL RNAse inhibitor, 0.25 μL DNAseI (from Thermo not the included one in the kit) was prepared. 20 μL of the mix was added to each well, mixed 5 times, and incubated 5 minutes at RT or alternatively shaken vigorously for 15 minutes. Lysis was observed under the microscope. Samples were frozen −80° C. at least for 15 minutes.
1-step RT-Preamplification was used for detection of DUX4 downstream genes, i.e., MBD3L2, ZSCAN4, LEUTX, TRIM43, KHDC1L, and POL2RA-VIC was used as endogenous control. Per 10 μL reaction, the reaction mix included: 2.25 μL of RNA (1:10 dilution lysate), 5 μL of Taqman Pre-Amp Master Mix (2×), 0.25 μL of RT enzyme mix (40×), 2.5 μL of Taqman probe set (0.2×)*. * For pooling the TaqMan Assays, equal volumes of each 20× TaqMan® Gene Expression Assay were used, and up to 100 assays were combined. For example, to pool 50 TaqMan assays, 10 μL of each assay were combined in a microcentrifuge tube. The pooled TaqMan assays were diluted using 1× TE buffer so that each assay was at a final concentration of 0.2×. For the above example, 500 μL of 1× TE buffer was added to the pooled TaqMan assays for a total final volume of 1 mL. The QuantStudio7 protocol was used at 48° C. 15 min, 95° C. 10 min, 10 cycles: 95° C. 15 sec, 60° C. 4 min, and 4° C. infinite Samples were then diluted to 50 μL and continued with the qPCR step. Per 10 μL reaction, the reaction mix included: 2 μL of Preamp dilution, 5 μL of Fast Advanced Taqman Master Mix (2×), 0.5 μL of Taqman probe set (20×), and 2.5 μL of H2O. When multiplexing, the volume was adjusted to 10 μL total. The following program was run on the QuantStudio7: 50° C. for 2 min, 95° C. for 30 sec, 40×, 95° C. for 5 sec, 60° C. for 30 sec, and plates were read as per the manufacturers specifications (Thermo).
Wild type myotubes and mature patient-derived FSHD myotubes that express DUX4 protein were treated with DMSO vehicle control or multiple concentrations of various p38α/β inhibitors with different ranges of isoform and kinome selectivity, including SB239063 (FIG. 4A), VX-702 (FIG. 4B), Pamapimod (FIG. 4C), and TAK-715 (FIG. 4D). After treatment, the control and treated cells were processed for realtime PCR quantification of MBD3L2 mRNA (DUX4 downstream gene) and myogenin (MYOG) mRNA (control) expression.

[3] = rat; oral; clinically relevant plasma exposures
Method: Male Sprague Dawley rats (6-8 weeks of age) were supplied by Hilltop Lab Animals, Inc. (USA). Following arrival at Wuxi AppTec, animals were assessed for their general health by a member of veterinary staff or other designated personnel. Animals were acclimated for at least 2 days (upon arrival at WuXi AppTec) before commencement of the study. Animals were individually housed during acclimation and throughout the study. The animal room environment was controlled according to facility operation (target conditions: temperature 20 to 26° C., relative humidity 30 to 70%, 12-hour cycle of lights on and off). Lights, temperature and relative humidity are constantly monitored by AmegaView Environmental Monitoring System. […] Water (reverse osmosis) was provided to the animals ad libitum. […] In study #FULTH-20171120 rats were fasted overnight prior to drug administration: rats were allowed free access to water at all times and were fed 4 hours post dosing. For study #FULTH-20171228 rats were allowed ad-libitum access to food and water throughout the study.
Dose volume was determined by measured body weight prior to dosing. […] Feeding condition: overnight fast, food return 4 hours after dosing.
Blood samples for PK: Approximately 100 μl of blood sample was obtained via jugular vein or tail vein at each pre-defined time point. […]

[4] = system: DUX4 dependent target genes; assay: Predicted reduction of DUX4 dependent target genes in FSHD patient muscle; design: species or system human; settings: from rat muscle concentrations and in vitro FSHD myotube data
Method: P38 system target engagement persisted for at least 12 hours following the single dose of FTX-1821 (FIG. 15). P38 system target engagement in trapezius muscle was maximal when plasma and muscle concentrations of FTX-1821 were greater than 20 ng.mL or ng.g and declined at timepoints when exposures decreased. The muscle concentrations of FTX-1821 achieved in the rat study are predicted to result in >70% reduction at Cmax in DUX4 dependent target genes in FSHD patient muscle biopsies based upon in vitro data in FSHD myotubes (above).

DUX4 target genes = assay: RNA-seq profiling of FSHD myotubes; type: cell-based, human; settings: 1 μM
Source text: The 40 bp single-end reads from Illumina had good quality by checking with FastQC (http://www.bioinformatics.babraham.ac.uk/projects/fastqc/). Reads were mapped to hg19 using TopHat v2.1.1 (Kim et al., 2013) with options as “solexa1.3-quals” mode and “no-novel-juncs.” The gene model for TopHat was created by merging known gene in gtf format with kgXref table. Both known gene and kgXref were downloaded from UCSC table browser in hg19 assembly. The read counts were obtained using featureCounts function from Subread package with strandness option as −r 2. Reads were normalized with DESeq2 (Love et al., 2014).
The 40 bp single-end reads from Illumina had good quality by checking with FastQC (http://www.bioinformatics.babraham.ac.uk/projects/fastqc/). Reads were mapped to hg19 using TopHat v2.1.1. The gene model for TopHat was created by merging knownGene in gtf format with kgXref table. Both known gene and kgXref were downloaded from UCSC table browser in hg19 assembly. The read counts were obtained using feature Counts function from Subread package with strandness option as -r 2. Reads were normalized with DESeq2. […] Calculated standard RPKM expression values. […]
In addition, gene expression was also determined in wild type myotubes treated with DMSO. Three replicates for each condition were analyzed by RNA-seq and genes were clustered by the direction and intensity of change.

[5] = rat, single oral dose 0.3 mg/kg

Cc1c(F)cc(C(=O)NC2CC2)cc1-c1ccc(C(=O)NCC(C)(C)C)cn1 [FTX-1821]
plasma concentration at maximal inhibition of the p38 system in muscle ([1]; rat): greater than 20 ng/mL | plasma and muscle concentrations at maximal p38 system target engagement ([1]; rat trapezius muscle): greater than 20 ng.mL or ng.g | time to significant decrease of phospho MK2 to total MK2 ratio ([1]; rat trapezius, single oral dose 0.3 mg/kg): ≤ 1 h | persistence of p38 system target engagement [1, 5]: at least 12 hours | phospho MK2 to total MK2 ratio in trapezius muscle [1, 5]: significantly decreased | MBD3L2 mRNA in FSHD1 and FSHD2 primary patient myoblast lines ([2]; to levels similar to healthy control lines): reduction | MBD3L2 expression levels in four FSHD patient lines ([2]; FTCE-016, -020, -197, -196 myotubes, to levels similar to healthy controls): reduced | Muscle to plasma exposure ratios [3]: ≥ 1 | predicted reduction at Cmax in DUX4 dependent target genes in FSHD patient muscle biopsies [4]: > 70% | non-DUX4-regulated genes in total signature (DUX4 target genes; moderate fold changes): 9/86 | expression of differentially expressed (DUX4 pathway) genes by RNA-seq (DUX4 target genes; vs DMSO and wild type): normalized
